# Activity calls are given as the source filed them. The calls are words filed in the database; no cut-off is given here.
# Target: Protein smoothened (Mus musculus) (UniProt P56726)
# Experiment: (§1) Agonist activity at SMO in mouse NIH3T3 cells incubated for 2 hrs by Bright-Glo luciferase assay
# Assay type: functional, cell-based
# Protein smoothened (Mus musculus), sequence (P56726 whole entry): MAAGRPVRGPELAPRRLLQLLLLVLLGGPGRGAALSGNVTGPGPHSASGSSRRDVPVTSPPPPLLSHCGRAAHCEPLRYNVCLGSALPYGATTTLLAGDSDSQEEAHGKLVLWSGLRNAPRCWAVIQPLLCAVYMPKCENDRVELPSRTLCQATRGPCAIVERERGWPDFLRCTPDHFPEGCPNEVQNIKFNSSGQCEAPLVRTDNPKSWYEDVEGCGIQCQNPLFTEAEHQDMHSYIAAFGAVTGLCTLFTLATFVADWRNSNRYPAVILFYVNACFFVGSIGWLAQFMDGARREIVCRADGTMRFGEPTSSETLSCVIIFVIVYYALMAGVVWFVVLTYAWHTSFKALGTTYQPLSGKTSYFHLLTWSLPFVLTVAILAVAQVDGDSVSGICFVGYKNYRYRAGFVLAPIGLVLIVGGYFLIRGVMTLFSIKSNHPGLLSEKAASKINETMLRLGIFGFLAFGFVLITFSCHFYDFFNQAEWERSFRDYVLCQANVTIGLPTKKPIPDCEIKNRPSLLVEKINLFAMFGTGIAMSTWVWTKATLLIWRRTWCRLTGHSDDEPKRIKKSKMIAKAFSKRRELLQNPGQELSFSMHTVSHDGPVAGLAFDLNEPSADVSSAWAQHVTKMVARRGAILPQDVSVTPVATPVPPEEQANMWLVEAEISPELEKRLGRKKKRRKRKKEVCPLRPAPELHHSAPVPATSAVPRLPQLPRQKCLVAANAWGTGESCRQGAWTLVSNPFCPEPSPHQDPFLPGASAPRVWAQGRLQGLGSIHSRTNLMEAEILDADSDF
row,SMILES,Activity
1,CN[C@H]1CC[C@H](N(Cc2cccc(-c3ccnc(OCCOCCn4cc(COCCCCCC[C@](C)(O)[C@H]5CC[C@H]6[C@@H]7CC=C8C[C@@H](O)CC[C@]8(C)[C@H]7CC[C@@]65C)nn4)c3)c2)C(=O)c2sc3ccccc3c2Cl)CC1,inactive
2,CN[C@H]1CC[C@H](N(Cc2cccc(-c3ccnc(OCCn4cc(COCCCCCCC[C@](C)(O)[C@H]5CC[C@H]6[C@@H]7CC=C8C[C@@H](O)CC[C@]8(C)[C@H]7CC[C@@]65C)nn4)c3)c2)C(=O)c2sc3ccccc3c2Cl)CC1,inactive
3,CN[C@H]1CC[C@H](N(Cc2cccc(-c3ccnc(OCCOCCOCCOCCn4cc(COCCOCCOCCOCCCCCC[C@](C)(O)C5CC[C@H]6[C@@H]7CC=C8C[C@@H](O)CC[C@]8(C)[C@H]7CC[C@]56C)nn4)c3)c2)C(=O)c2sc3ccccc3c2Cl)CC1 (stereo partly drawn),inactive

# The remaining lines, values ahead:
row,Activity,SMILES
1,inactive,CN[C@H]1CC[C@H](N(Cc2cccc(-c3ccnc(OCCOCCOCCOCCn4cc(COCCOCCOCCOCCOCCOCCOCCCCCC[C@](C)(O)C5CC[C@H]6[C@@H]7CC=C8C[C@@H](O)CC[C@]8(C)[C@H]7CC[C@]56C)nn4)c3)c2)C(=O)c2sc3ccccc3c2Cl)CC1 (stereo partly drawn)
2,inactive,CN[C@H]1CC[C@H](N(Cc2cccc(-c3ccnc(OCCOCCOCCOCCOCCOCCn4cc(COCCOCCOCCOCCOCCOCCOCCCCCCC(C)(O)C5CC[C@H]6[C@@H]7CC=C8C[C@@H](O)CC[C@]8(C)[C@H]7CC[C@]56C)nn4)c3)c2)C(=O)c2sc3ccccc3c2Cl)CC1 (stereo partly drawn)
3,inactive,CN[C@H]1CC[C@H](N(Cc2cccc(-c3ccnc(OCCOCCOCCOCCn4cc(COCCOCCOCCOCCOCCOCCCCCC[C@](C)(O)C5CC[C@H]6[C@@H]7CC=C8C[C@@H](O)CC[C@]8(C)[C@H]7CC[C@]56C)nn4)c3)c2)C(=O)c2sc3ccccc3c2Cl)CC1 (stereo partly drawn)
4,inactive,CN[C@H]1CC[C@H](N(Cc2cccc(-c3ccnc(OCCOCCOCCOCCn4cc(COCCOCCOCCOCCOCCCCCC[C@](C)(O)C5CC[C@H]6[C@@H]7CC=C8C[C@@H](O)CC[C@]8(C)[C@H]7CC[C@]56C)nn4)c3)c2)C(=O)c2sc3ccccc3c2Cl)CC1 (stereo partly drawn)
5,inactive,CN[C@H]1CC[C@H](N(Cc2cccc(-c3ccnc(OCCOCCOCCOCCOCCn4cc(COCCOCCOCCOCCOCCOCCOCCCCCCC(C)(O)C5CC[C@H]6[C@@H]7CC=C8C[C@@H](O)CC[C@]8(C)[C@H]7CC[C@]56C)nn4)c3)c2)C(=O)c2sc3ccccc3c2Cl)CC1 (stereo partly drawn)

# Target: T1, Protein smoothened (Mus musculus, UniProt P56726)
# Experiment: as §1
# Assay type: functional, cell-based
# T1 sequence (P56726 whole entry): as the sequence (P56726 whole entry) above
row,SMILES,EC50
1,CN[C@H]1CC[C@H](N(Cc2cccc(-c3ccnc(OCCOCCOCCn4cc(COCCCCCCC(C)(O)C5CC[C@H]6[C@@H]7CC=C8C[C@@H](O)CC[C@]8(C)[C@H]7CC[C@]56C)nn4)c3)c2)C(=O)c2sc3ccccc3c2Cl)CC1 (stereo partly drawn),8 nM
2,CN[C@H]1CC[C@H](N(Cc2cccc(-c3ccnc(OC)c3)c2)C(=O)c2sc3ccccc3c2Cl)CC1,819 nM
3,CN[C@H]1CC[C@H](N(Cc2cccc(-c3ccnc(OCCOCCOCCOCCn4cc(COCCCCCC[C@](C)(O)C5CC[C@H]6[C@@H]7CC=C8C[C@@H](O)CC[C@]8(C)[C@H]7CC[C@]56C)nn4)c3)c2)C(=O)c2sc3ccccc3c2Cl)CC1 (stereo partly drawn),8 nM
4,CC(O)(CCCCCCOCCOCc1cn(CCOCCOCCOCCO)nn1)C1CC[C@H]2[C@@H]3CC=C4C[C@@H](O)CC[C@]4(C)[C@H]3CC[C@]12C (stereo partly drawn),> 100000 nM
5,CC(O)(CCCCCCO)C1CC[C@H]2[C@@H]3CC=C4C[C@@H](O)CC[C@]4(C)[C@H]3CC[C@]12C (stereo partly drawn),> 100000 nM
6,CN[C@H]1CC[C@H](N(Cc2cccc(-c3ccnc(OCCOCCOCCOCCn4cc(COCCO)nn4)c3)c2)C(=O)c2sc3ccccc3c2Cl)CC1,966 nM
7,CN[C@H]1CC[C@H](N(Cc2cccc(-c3ccnc(OCCOCCOCCOCCn4cc(COCCOCCOCCCCCC[C@](C)(O)C5CC[C@H]6[C@@H]7CC=C8C[C@@H](O)CC[C@]8(C)[C@H]7CC[C@]56C)nn4)c3)c2)C(=O)c2sc3ccccc3c2Cl)CC1 (stereo partly drawn),8 nM

# Results, then the compound that gave them:
row,EC50,SMILES
1,200 nM,CN[C@H]1CC[C@H](N(Cc2cccc(-c3ccnc(OCCOCCOCCOCCOCCOCCn4cc(COCCOCCOCCOCCOCCOCCOCCOCCCCCC[C@@H](C)C5CC[C@H]6[C@@H]7CC=C8C[C@@H](O)CC[C@]8(C)[C@H]7CC[C@]56C)nn4)c3)c2)C(=O)c2sc3ccccc3c2Cl)CC1 (stereo partly drawn)
2,200 nM,CN[C@H]1CC[C@H](N(Cc2cccc(-c3ccnc(OCCOCCOCCOCCOCCOCCn4cc(COCCOCCOCCOCCOCCOCCOCCCCCC[C@@H](C)C5CC[C@H]6[C@@H]7CC=C8C[C@@H](O)CC[C@]8(C)[C@H]7CC[C@]56C)nn4)c3)c2)C(=O)c2sc3ccccc3c2Cl)CC1 (stereo partly drawn)
3,200 nM,CN[C@H]1CC[C@H](N(Cc2cccc(-c3ccnc(OCCOCCOCCOCCOCCOCCn4cc(COCCOCCOCCOCCOCCOCCOCCOCCOCCCCCC[C@@H](C)C5CC[C@H]6[C@@H]7CC=C8C[C@@H](O)CC[C@]8(C)[C@H]7CC[C@]56C)nn4)c3)c2)C(=O)c2sc3ccccc3c2Cl)CC1 (stereo partly drawn)
4,200 nM,CN[C@H]1CC[C@H](N(Cc2cccc(-c3ccnc(OCCOCCOCCOCCn4cc(COCCOCCOCCOCCOCCOCCOCCCCCC[C@@H](C)C5CC[C@H]6[C@@H]7CC=C8C[C@@H](O)CC[C@]8(C)[C@H]7CC[C@]56C)nn4)c3)c2)C(=O)c2sc3ccccc3c2Cl)CC1 (stereo partly drawn)
5,200 nM,CN[C@H]1CC[C@H](N(Cc2cccc(-c3ccnc(OCCOCCOCCOCCn4cc(COCCOCCOCCOCCCCCC[C@@H](C)C5CC[C@H]6[C@@H]7CC=C8C[C@@H](O)CC[C@]8(C)[C@H]7CC[C@]56C)nn4)c3)c2)C(=O)c2sc3ccccc3c2Cl)CC1 (stereo partly drawn)

# Target: T1, Protein smoothened
# Experiment: Antagonist activity at SMO in mouse NIH3T3 cells preincubated for 2 hrs followed by SAG stimulation and measured after 24 hrs by Bright-Glo luciferase assay
# Assay type: functional, cell-based
row,IC50,SMILES
1,20 nM,CC(O)(CCCCCCOCCOCCOCc1cn(CCOCCOCCOCCOCCOCCS(=O)(=O)c2ccc(C(=O)Nc3ccc(Cl)c(-c4ccccn4)c3)c(Cl)c2)nn1)C1CC[C@H]2[C@@H]3CC=C4C[C@@H](O)CC[C@]4(C)[C@H]3CC[C@]12C (stereo partly drawn)
2,20 nM,CC(O)(CCCCCCOCCOCCOCCOCCOCc1cn(CCOCCOCCOCCOCCOCCS(=O)(=O)c2ccc(C(=O)Nc3ccc(Cl)c(-c4ccccn4)c3)c(Cl)c2)nn1)C1CC[C@H]2[C@@H]3CC=C4C[C@@H](O)CC[C@]4(C)[C@H]3CC[C@]12C (stereo partly drawn)
3,20 nM,CC(O)(CCCCCCOCCOCc1cn(CCOCCOCCOCCS(=O)(=O)c2ccc(C(=O)Nc3ccc(Cl)c(-c4ccccn4)c3)c(Cl)c2)nn1)C1CC[C@H]2[C@@H]3CC=C4C[C@@H](O)CC[C@]4(C)[C@H]3CC[C@]12C (stereo partly drawn)
4,20 nM,CC(O)(CCCCCCOCCOCc1cn(CCOCCOCCS(=O)(=O)c2ccc(C(=O)Nc3ccc(Cl)c(-c4ccccn4)c3)c(Cl)c2)nn1)C1CC[C@H]2[C@@H]3CC=C4C[C@@H](O)CC[C@]4(C)[C@H]3CC[C@]12C (stereo partly drawn)
5,20 nM,CC(O)(CCCCCCOCCOCc1cn(CCOCCOCCOCCOCCS(=O)(=O)c2ccc(C(=O)Nc3ccc(Cl)c(-c4ccccn4)c3)c(Cl)c2)nn1)C1CC[C@H]2[C@@H]3CC=C4C[C@@H](O)CC[C@]4(C)[C@H]3CC[C@]12C (stereo partly drawn)
6,3000 nM,[N-]=[N+]=NCCOCCOCCOCCOCCOCCS(=O)(=O)c1ccc(C(=O)Nc2ccc(Cl)c(-c3ccccn3)c2)c(Cl)c1
7,20 nM,CC(O)(CCCCCCOCCOCCOCCOCCOCCOCCOCc1cn(CCOCCOCCOCCOCCOCCS(=O)(=O)c2ccc(C(=O)Nc3ccc(Cl)c(-c4ccccn4)c3)c(Cl)c2)nn1)C1CC[C@H]2[C@@H]3CC=C4C[C@@H](O)CC[C@]4(C)[C@H]3CC[C@]12C (stereo partly drawn)
8,20 nM,CC(O)(CCCCCCOCCOCCOCCOCCOCCOCCOCCOCCOCc1cn(CCOCCOCCOCCOCCOCCS(=O)(=O)c2ccc(C(=O)Nc3ccc(Cl)c(-c4ccccn4)c3)c(Cl)c2)nn1)C1CC[C@H]2[C@@H]3CC=C4C[C@@H](O)CC[C@]4(C)[C@H]3CC[C@]12C (stereo partly drawn)

# From ChEMBL document CHEMBL4828758, “Elucidation of Distinct Modular Assemblies of Smoothened Receptor by Bitopic Ligand Measurement” (J Med Chem, 2021)
